Experimental data published in patent US20220257484A1, “WHOLE MOUTH MALADOR CONTROL BY A COMBINATION OF ANTIBACTERIAL AND DEODORIZING AGENTS” (The Procter & Gamble Company, priority 2010, published 2022).
Where “and” joins values, the source holds several entries; their conditions need not be identical. Equal entries are not always repeated.

Test: in-vitro headspace GC-MS odor-neutralizing test, Relative Odor Activity Value (ROAV)
Conditions: recreated garlic odor, 0.05% active concentration, vs control, negative value indicates no reduction
Procedure: The odor-neutralizing or deodorization activity of target actives was evaluated against a recreated garlic odor using an in-vitro headspace gas chromatography-mass spectrometry (GC-MS) method described below. A mixture of five sulfur compounds (ethanethiol, 1-propanethiol, […], methyl allyl disulfide and […]) was used to simulate a garlic odor. […] [See e.g., J. Taucher, et al. J. Agric. Food Chem. (1996), 44 (12), 3778-3782; F. Suarez, et al. Am. J. Physiol. Gastrointest. Liver Physiol. (1999), 276: G425-G430; I. Laakso, et al. Planta Med. (1989), 55, 257-261; X. J. Cai, et al. J. Agric. Food Chem. (1995), 43, 1751-1753; T. Minami, et al. J. Food Sci. (1989), 54, 763-765.]
The following procedure and instrumentation were used to evaluate the relative odor-neutralizing activity of various compounds.
1) Purge product base (e.g., mouthrinse or dental solution) with nitrogen for 10 minutes. 2) Purge all sample preparation vials with stir bars inside for 1 minute. 3) Add 3960 μl product base to control vials (4 ml capacity) and 3560 μl product base to test sample vials (4 ml capacity). 4) Make garlic stock by mixing the following components in order: 600 μl ethanol; 500 μl ethanethiol; 80 μl 1-propanethiol; 30 μl […]; 20 μl methyl allyl disulfide; 70 μl […]. 5) Add 40 ul of garlic stock to each control and test sample vial. 6) Stir all samples to mix product base and garlic stock for a total time of 20 min. To each test sample vial, add 400 μl of test active after 15 min. of stirring and allow test active mix in and react for 5 min. 7) After mixing, transfer 50 μl each of control sample and test sample to nitrogen purged GC headspace vials. 8) Place control and test sample vials on headspace autosampler for GC analysis. Each sample is equilibrated at 32° C. for 3 min. before injection into the GC instrument.
A Relative OAV is calculated for each component by dividing its peak area by its odor threshold value. Odor threshold values for these compounds are reported in the literature. […] A negative value indicates no reduction in ROAV.

Compound | % Reduction of ROAV [%] | also measured
CCc1occc(=O)c1O [Ethyl maltol, reference compound] | −3.46 | 
COc1ccc(C=O)cc1 [Anisaldehyde, 4-methoxybenzaldehyde] | 20.76 | % Reduction of ROAV (listed as 4-Methoxybenzaldehyde (Anisaldehyde)): 20.76%; % Reduction of ROAV (listed as anisaldehyde): 20.76% and > 20%
CCCCCCCC=O [Octanal, reference compound] | −28.76 | % Reduction of ROAV (listed as octanal): no reduction of ROAV
COc1ccc(C=O)cc1OC [Methyl vanillin (Veratraldehyde), 3,4-Dimethoxybenzaldehyde] | 4.45 | 
CC(C)=CCCC(C)=CC=O [Citral, reference compound] | −19.54 | 
O=Cc1ccccc1O [Salicylaldehyde, 2-Hydroxybenzaldehyde, reference compound] | −5.87 | 
CC(=O)/C=C/C1=C(C)CCCC1(C)C [β-Ionone] | 17.56 | 
Cc1ccc(C=O)cc1 [4-methylbenzaldehyde] | 3.67 | 
COc1ccc(C=CC=O)cc1 [para-Methoxycinnamaldehyde, reference compound] | −0.49 | 
O=Cc1ccc2c(c1)OCO2 [Heliotropin, reference compound] | −2.92 | 
L(−) Carvone | 3.27 | 
O=CC=Cc1ccccc1 [Cinnamaldehyde] | 10.73 | 
CCCCCC/C(C=O)=C\c1ccccc1 [Hexyl cinnamaldehyde, reference compound] | −1.19 | 
CC1=CC(=O)[C@@H](C(C)C)CC1 [(−) Piperitone] | 10.19 | 
